These results are taken from patent US9809853B2, “Calcium-activated chloride channel involved in human sweat formation” (BRAIN Biotechnology Research and Information Network AG, priority 2012, dated 2017).

Each structure is given as a SMILES string.

The experiment addresses T1, TMEM16A(acΔe3) (Homo sapiens, UniProt Q5XXA6).
T1 construct: expressed in transfected cells
T1 sequence (Q5XXA6 1-927 isoform Q5XXA6-4): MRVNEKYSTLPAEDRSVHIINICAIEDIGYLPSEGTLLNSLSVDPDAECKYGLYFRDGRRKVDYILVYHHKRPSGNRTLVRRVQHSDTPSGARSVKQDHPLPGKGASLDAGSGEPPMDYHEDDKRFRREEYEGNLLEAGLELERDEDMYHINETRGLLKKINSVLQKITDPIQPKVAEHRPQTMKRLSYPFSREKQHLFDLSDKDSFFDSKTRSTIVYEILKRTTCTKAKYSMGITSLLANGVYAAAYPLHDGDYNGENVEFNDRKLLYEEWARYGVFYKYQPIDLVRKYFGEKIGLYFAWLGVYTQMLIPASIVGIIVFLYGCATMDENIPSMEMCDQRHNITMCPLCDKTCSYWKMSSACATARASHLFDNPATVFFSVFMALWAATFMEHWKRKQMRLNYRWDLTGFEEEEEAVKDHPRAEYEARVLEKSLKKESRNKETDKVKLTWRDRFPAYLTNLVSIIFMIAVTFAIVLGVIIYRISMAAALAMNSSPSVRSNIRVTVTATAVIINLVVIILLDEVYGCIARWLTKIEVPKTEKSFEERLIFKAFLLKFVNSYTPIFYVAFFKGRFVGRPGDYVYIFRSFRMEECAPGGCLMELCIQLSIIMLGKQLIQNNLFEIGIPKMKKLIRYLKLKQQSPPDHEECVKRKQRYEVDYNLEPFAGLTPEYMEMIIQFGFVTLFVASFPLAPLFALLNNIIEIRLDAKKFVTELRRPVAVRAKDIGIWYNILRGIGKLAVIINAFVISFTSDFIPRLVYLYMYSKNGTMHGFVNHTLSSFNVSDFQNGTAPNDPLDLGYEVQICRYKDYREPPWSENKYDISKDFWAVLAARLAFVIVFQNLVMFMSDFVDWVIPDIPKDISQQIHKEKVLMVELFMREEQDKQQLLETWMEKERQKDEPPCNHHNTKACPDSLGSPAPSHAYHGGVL
Kind of experiment: hsYFP quenching assay in NCL-SG3-hsYFP-TMEM16A(acΔe3) cells. Format: cell-based. The following applies: 330 μM ATP; for Effect of pretreatment on hsYFP quenching / Ca^2+-dependent Cl^− secretion after ATP: cells overexpressing TMEM16A(acΔe3). Here is the method: NCL-SG3-hsYFP, NCL-SG 3-hsYFP-TMEM16A(ac) and NCL-SG3-hsYFP-TMEM16A(acΔe3) cells were untreated (basal activity) or stimulated with ATP (330 μM). Quenching of hsYFP fluorescence was determined. The rate of I^− influx (sec^−1) was calculated from the initial slope of measured hsYFP fluorescence (ΔYFP fluorescence/Δtime) and is a direct measure of CaCC activity. For better comparison fold changes compared to basal activity of parental cells are shown. […] All influx rate differences are higly statistically significant, except the basal influx rate of parental and TMEM16A(ac) overexpressing NCL-SG3-hsYFP cells (Student's t-test, two-tailed; *** p-value<0.0001).
TMEM16A(ac) and TMEM16A(acΔe3) are present in human eccrine sweat glands and were therefore obtained by RT-PCR amplification using TRIzol® (Invitrogen) extracted RNA from freshly isolated human eccrine sweat glands using oligonucleotides (forward 5′-[…]; reverse 5′-[…]) SEQ ID NOS: 5 and 6 , which amplify full-length TMEM16A, and subsequently cloned into the proprietary eukaryotic gene expression plasmid (pEF1α-TMEM16A(ac) and pEF1α-TMEM16A(acΔe3), FIG. 6A). […] Both genes are coupled by an internal ribosomal entry site (IRES) to enable efficient translation of both open reading frames located on the same mRNA. […]
Taken together, NCL-SG3-hsYFP cells can be used to monitor Ca^2+-dependent Cl^− fluxes, which represent the initial step in primary sweat formation in sweat gland cells. […] Microplates were transferred into an automated fluorescence plate reader (FlexStation®, Molecular Devices) and cellular hsYFP fluorescence was continuously recorded every 3.5 sec until end of the experiment (excitation at 485 nm, emission at 535 nm, cutoff 515 nm). […] NCL-SG3-hsYFP cells allow quantitative evaluation of in vivo Cl^− channel activity (FIGS. 9 and 10D). To determine the exact rate of Cl^− efflux/I^− influx the hsYFP fluorescence was plotted against time (ΔYFP fluorescence/Δtime). […]

In the case of `Nc1ncnc2c1ncn2[C@@H]1O[C@H](COP(=O)(O)OP(=O)(O)OP(=O)(O)O)[C@@H](O)[C@H]1O` [ATP], the “ATP-induced activity (I^− influx rate, fold)” value (TMEM16A(acΔe3) overexpressing cells) worked out at 2 fold. Regarding `O=C(OC[C@H]1O[C@@H](OC(=O)c2cc(O)c(O)c(OC(=O)c3cc(O)c(O)c(O)c3)c2)[C@H](OC(=O)c2cc(O)c(O)c(OC(=O)c3cc(O)c(O)c(O)c3)c2)[C@@H](OC(=O)c2cc(O)c(O)c(OC(=O)c3cc(O)c(O)c(O)c3)c2)[C@@H]1OC(=O)c1cc(O)c(O)c(OC(=O)c2cc(O)c(O)c(O)c2)c1)c1cc(O)c(O)c(OC(=O)c2cc(O)c(O)c(O)c2)c1` [TA, tannic acid], the “Effect of pretreatment on hsYFP quenching / Ca^2+-dependent Cl^− secretion after ATP” value was “significant reduction of hsYFP quenching”. Besides, the “Effect of pretreatment on hsYFP quenching / Ca^2+-dependent Cl^− secretion after ATP” value (listed as tannic acid) is given as “inhibited”.
